Source: article PMC3365614 (Cancer Chemotherapy and Pharmacology, 2012)

Tests used:
[1] = for Plasma concentration, effect of flavopiridol: immediately prior to (24 h) vs end of 1-hr flavopiridol infusion (25 h) on day 2
ABCG2 = settings: cited from earlier work
[2] = 1-hr infusions of flavopiridol as a single agent; cited from earlier work
human serum proteins = settings: cited from earlier work
[3] = format: in vivo, human

Row | Plasma concentration, effect of flavopiridol [1] | AUC of imatinib, lower in the presence of flavopiridol ([1]; on average, presence vs absence of flavopiridol, p=0.022) [%] | AUC of the metabolite CGP74588, effect of flavopiridol ([1]; presence vs absence of flavopiridol, P=0.84) | SMILES | ABCG2 inhibition (ABCG2) | flavopiridol clearance, previously reported [2] [L/hr/m^2] | binding to human serum proteins (human serum proteins) | mean flavopiridol clearance (per body surface area) ([3]; 1-hr infusions of 30, 45 or 60 mg/m^2 with 400 or 600 mg/day imatinib, cycle 1) [L/hr/m^2] | clearance ([3]; human, plasma, intravenous) [mL/min] | half-life ([3]; human, plasma, intravenous) [h] | ABCG2 substrate status (ABCG2)
1 | did not affect | 21 |  | Cc1ccc(NC(=O)c2ccc(CN3CCN(C)CC3)cc2)cc1Nc1nccc(-c2cccnc2)n1 [imatinib] | inhibitor |  |  |  |  |  | 
2 | increase |  | not significantly affected | Cc1ccc(NC(=O)c2ccc(CN3CCNCC3)cc2)cc1Nc1nccc(-c2cccnc2)n1 [CGP74588] |  |  |  |  |  |  | 
3 |  |  |  | CN1CC[C@H](c2c(O)cc(O)c3c(=O)cc(-c4ccccc4Cl)oc23)[C@H](O)C1 [flavopiridol] |  | 13.8 | bind tightly | 13.2 | 427 | 2.33 ± 0.97 | substrate
